# From patent US10597620B2, “Taste modifiers comprising a chlorogenic acid” (GIVAUDAN SA, priority 2001, dated 2020)
# Assay: Flavorist panel evaluation of aged artificially sweetened beverage with added chlorogenic acid
# Format: in vivo
# Conditions: final concentration 0.003% w/v; compared to untreated beverage; six member panel of trained flavorists
# Method: An artificially sweetened beverage is prepared by mixing 1.4 g aspartame, 0.9 g acesulfame K, 6 ml sodium benzoate (25%^w/v in water), 1.3 ml phosphoric acid (85%^w/v), and 0.5 ml citric acid (50%^w/v in water). The volume of the mixture is adjusted to 1000 ml with water. The beverage mixture is aged for three weeks at 34° C.
# A 2.8%^w/w solution of a commercially available synthetic chlorogenic acid (>95% pure (1,3,4,5-tetrahydroxy-cyclohexanecarboxylic acid 3-[3,4-dihydroxycinnamate]), Sigma Chemical Co., St. Louis, Mo.), in water, pH 5.6, is added to a portion of the aged beverage to a final concentration of 0.003%^w/v. The beverage containing chlorogenic acid is evaluated and compared to the untreated beverage by a six member panel of trained flavorists. The beverage containing the commercial chlorogenic acid is judged by the panel to display markedly less of the metallic, slightly bitter aftertaste found in the aged artificially sweetened beverage.
# To another portion of the artificially sweetened beverage prepared as described in the first paragraph of Example 6, an aqueous solution of chlorogenic acid from the powdered extract of green coffee beans is added to a final concentration of 0.003%^w/v chlorogenic acid. This beverage is evaluated by the same flavorist panel as described in Example 6. […]
smiles,measurement,value
"O=C(C=Cc1ccc(O)c(O)c1)OC1CC(O)(C(=O)O)CC(O)C1O (stereo not shown) [synthetic chlorogenic acid, 1,3,4,5-tetrahydroxy-cyclohexanecarboxylic acid 3-[3,4-dihydroxycinnamate]]","metallic, slightly bitter aftertaste found in the aged artificially sweetened beverage",markedly less
